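Protocol summary: plate cells (96-well), add compound at 5 concentrations, incubate 48 h, interpolate endpoints linearly. GI50 marks 50% less growth.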 The source made the active and inactive calls. Cut-off read from the data, not from the text of the source: active = GI50 up to about 1.1 µM and inactive = higher.
Experiments:
Test in all cases: NCI anticancer screen, dose series, 48 h
RPMI-8226 = tested on: RPMI-8226
ACHN = tested on: ACHN
U-251 = tested on: U-251
HCT-15 = tested on: HCT-15
SN12C = tested on: SN12C
MDA-N = tested on: MDA-N
UACC-62 = tested on: UACC-62
MOLT-4 = tested on: MOLT-4
K562 = tested on: K562
KM12 = tested on: KM12
A498 = tested on: A498
EKVX = tested on: EKVX
PC-3 = tested on: PC-3
A549 = tested on: A549
SW-620 = tested on: SW-620
OVCAR-3 = tested on: OVCAR-3
SF-295 = tested on: SF-295
COLO 205 = tested on: COLO 205
SNB-19 = tested on: SNB-19
CAKI-1 = tested on: CAKI-1
MDA-MB-231 = tested on: MDA-MB-231
OVCAR-5 = tested on: OVCAR-5
OVCAR-8 = tested on: OVCAR-8
NCI-H226 = tested on: NCI-H226
UO-31 = tested on: UO-31
HOP-62 = tested on: HOP-62
SK-MEL-28 = tested on: SK-MEL-28
NCI/ADR-RES = tested on: NCI/ADR-RES
SK-OV-3 = tested on: SK-OV-3
HOP-92 = tested on: HOP-92
HL-60 = tested on: HL-60
SK-MEL-5 = tested on: SK-MEL-5
HT-29 = tested on: HT-29
OVCAR-4 = tested on: OVCAR-4
MCF7 = tested on: MCF7
NCI-H23 = tested on: NCI-H23
CCRF-CEM = tested on: CCRF-CEM
T47D = tested on: T47D
NCI-H460 = tested on: NCI-H460
M14 = tested on: M14
Malme-3M = tested on: Malme-3M
LOX IMVI = tested on: LOX IMVI
RXF 393 = tested on: RXF 393
DU-145 = tested on: DU-145
TK-10 = tested on: TK-10
SR = tested on: SR
IGROV-1 = tested on: IGROV-1
SNB-75 = tested on: SNB-75
SK-MEL-2 = tested on: SK-MEL-2
MDA-MB-435 = tested on: MDA-MB-435
UACC-257 = tested on: UACC-257
HCC 2998 = tested on: HCC 2998

SMILES: Cc1cc2c(C(C)C)c(O)c(O)c(C=O)c2c(O)c1-c1c(C)cc2c(C(C)C)c(O)c(O)c(C=O)c2c1O
- GI50 (RPMI-8226): 4.38 µM (inactive)
- GI50 (ACHN): 5.51 µM (inactive)
- GI50 (U-251): 3.52 µM (inactive)
- GI50 (HCT-15): 5.18 µM
- GI50 (SN12C): 6.14 µM (inactive)
- GI50 (MDA-N): 87.7 µM (inactive)
- GI50 (UACC-62): 4.7 µM (inactive)
- GI50 (MOLT-4): 2.24 µM (inactive)
- GI50 (K562): 2.16 µM (inactive)
- GI50 (KM12): 2.07 µM (inactive)
- GI50 (A498): 4.47 µM (inactive)
- GI50 (EKVX): 1.32 µM (inactive)
- GI50 (PC-3): 5.04 µM (inactive)
- GI50 (A549): 5.69 µM (inactive)
- GI50 (SW-620): 7.06 µM (inactive)
- GI50 (OVCAR-3): 2.3 µM (inactive)
- GI50 (SF-295): 2.81 µM (inactive)
- GI50 (COLO 205): 4.35 µM (inactive)
- GI50 (SNB-19): 7.24 µM (inactive)
- GI50 (CAKI-1): 3.39 µM (inactive)

SMILES: CCOC(=O)c1csc(NC(=O)CN2CCN(C)CC2)n1
- GI50 (RPMI-8226): > 100 µM (inactive)
- GI50 (ACHN): > 100 µM (inactive)
- GI50 (MDA-MB-231): > 100 µM (inactive)
- GI50 (OVCAR-5): > 100 µM (inactive)
- GI50 (OVCAR-8): > 100 µM (inactive)
- GI50 (NCI-H226): > 100 µM (inactive)
- GI50 (U-251): > 100 µM (inactive)
- GI50 (UO-31): > 100 µM (inactive)
- GI50 (HOP-62): > 100 µM (inactive)
- GI50 (SK-MEL-28): > 100 µM (inactive)
- GI50 (NCI/ADR-RES): > 100 µM (inactive)
- GI50 (SK-OV-3): > 100 µM (inactive)
- GI50 (HOP-92): > 100 µM (inactive)
- GI50 (HL-60): > 100 µM (inactive)
- GI50 (SK-MEL-5): > 100 µM (inactive)
- GI50 (HCT-15): > 100 µM
- GI50 (HT-29): > 100 µM (inactive)
- GI50 (OVCAR-4): > 100 µM (inactive)
- GI50 (MCF7): > 100 µM (inactive)
- GI50 (MDA-N): > 100 µM (inactive)
- GI50 (NCI-H23): > 100 µM (inactive)
- GI50 (UACC-62): > 100 µM (inactive)
- GI50 (MOLT-4): > 100 µM (inactive)
- GI50 (K562): > 100 µM (inactive)
- GI50 (CCRF-CEM): > 100 µM (inactive)
- GI50 (T47D): > 100 µM (inactive)
- GI50 (NCI-H460): > 100 µM (inactive)
- GI50 (M14): > 100 µM (inactive)
- GI50 (Malme-3M): > 100 µM (inactive)
- GI50 (LOX IMVI): > 100 µM (inactive)
- GI50 (RXF 393): > 100 µM (inactive)
- GI50 (KM12): > 100 µM (inactive)
- GI50 (DU-145): > 100 µM (inactive)
- GI50 (A498): > 100 µM (inactive)
- GI50 (EKVX): > 100 µM (inactive)
- GI50 (TK-10): > 100 µM (inactive)
- GI50 (PC-3): > 100 µM (inactive)
- GI50 (A549): > 100 µM (inactive)
- GI50 (SW-620): > 100 µM (inactive)
- GI50 (OVCAR-3): > 100 µM (inactive)
- GI50 (SR): > 100 µM (inactive)
- GI50 (IGROV-1): > 100 µM (inactive)
- GI50 (SNB-75): > 100 µM (inactive)
- GI50 (SF-295): > 100 µM (inactive)
- GI50 (SK-MEL-2): > 100 µM (inactive)
- GI50 (MDA-MB-435): > 100 µM (inactive)
- GI50 (COLO 205): > 100 µM (inactive)
- GI50 (UACC-257): > 100 µM (inactive)
- GI50 (SNB-19): > 100 µM (inactive)
- GI50 (CAKI-1): > 100 µM (inactive)
- GI50 (HCC 2998): > 100 µM (inactive)

— ChEMBL document CHEMBL1201862, “PubChem BioAssay data set” (2004)
